# Patent publication US9198431B2, “Use of N6-(2-hydroxyethyl)-adenosine in preparation of crop pesticide” (Zhejiang Subtropical Crops Research Institute, priority 2013, dated 2015)
# How the values were obtained:
# Format in all cases: in vivo
# aphids = experiment: Insecticidal activity on aphids; settings: experimental data omitted
# diamondback moth larvae [1] = experiment: Development retardation (weight gain inhibition) of diamondback moth larvae; settings: for Average Weight (10 Tested Larvae) (mg) Δ4d: weight gain
# Method: (§1) Test Method: • Preparing N6-(2-hydroxyethyl)-adenosine solutions of various concentrations; • Diluting the 20% N6-(2-hydroxyethyl)-adenosine suspension to make solutions with 1000 mg/L, 800 mg/L, 600 mg/L, 400 mg/L, and 200 mg/L active ingredient concentrations, respectively, for testing the roles of N6-(2-hydroxyethyl)-adenosine in stomach poisoning of diamondback moth larvae. • Diluting the 20% N6-(2-hydroxyethyl)-adenosine suspending agent to make solutions with 300 mg/L, 250 mg/L, 200 mg/L, 150 mg/L and 100 mg/L active ingredient concentrations, respectively, to test the roles of N6-(2-hydroxyethyl)-adenosine in suppressing feeding and retarding development of diamondback moth larvae.
# Soak the cabbage leaves (7 cm in diameters) in the prepared solutions for 30 seconds, take the leaves out, leave them to dry, and then transfer the dried leaves to a Petri-dish (9 cm in diameter) cushioned with a wet filter paper. Inoculate 15 weighed third-instar diamondback moth larvae onto each Petri-dish. […] Prepare four replicas for each treatment group to determine the effects of various solutions in inhibiting the weight gain of the larvae.
# Weight-Gain Inhibition Rate (%)=[(the Average Weight Gain of the Control Group−the Average Weight Gain of the Treatment Group)÷the Average Weight Gain of the Control Group]×100.
# (§2) The results obtained were analyzed for significances of difference using Ducan's New Multiple Range Method. The various lowercase letters following the data in the same column indicate significant differences at a level of 0.05 level (P<0.05). The various capital letters following the data in the same column indicate significant differences at a level of 0.01 (P<0.01).
# diamondback moth larvae [2] = experiment: Stomach poisoning (oral toxicity) of diamondback moth larvae; settings: for Average Corrected Death Rate (%), stomach poisoning: 96 h
# Method: Test Insects: Artificial subculture breeding of diamondback moths collected at Xinqiao greenhouse vegetable field in Wenzhou was carried out in a thermostat illumination incubator and the second-instar larvae breeds of a consistent size and color were picked for tests.
# as §1
# Cut healthy, fresh cabbage leaves in small pieces that are 7 cm in diameters. Smear these pieces with various spore suspensions and leave them to dry naturally. Repeat the smearing process 3 times, and then put the leaves in plastic Petri-dishes with tiny holes that are 2 cm in diameter. Cover the dishes with nylon membranes to keep the leaves fresh.
# Pick out healthy indoor bred third-instar diamondback moth larvae of similar sizes with a writing brush, and inoculate them onto the cabbage leaves. Make 4 replicas of the treatments, each of which should contain 20 tested larvae. Cultivate the dishes in an incubator set to 25±1° C., 75˜80% relative humidity and 16 L:8D illumination. Observe and record the number of larvae that die of infection every day. Use 0.1% triton solution as a blank control and use the Abbott formula for correction of death rates. Corrected Death Rate (%)=[(Death Rate of the Treatment Group−Death Rate of the Control Group)/(1−Death Rate of the Control Group)]×100.
# as §2
# diamondback moth larvae [3] = experiment: Selective antifeeding (feeding suppression), leaf disk dipping; settings: for Selective antifeeding rate: third-instar larvae
# Method: as §1
# (§3) Round leaf disk dipping method was employed in this test. Prepare leaf disks out of cabbage leaves with a round hole puncher (d=2 cm), and soak the disks in N6-(2-hydroxyethyl)-adenosine solutions with different concentrations for 30 seconds. Then, take the leaf disks out and drain the excessive solution with clean blotting paper to prepare them for treatments. Use 0.1% triton solution as a blank control.
# Put a good-size piece of filter paper in a Petri-dish, and then put two processed and two control leaf disks into the same Petri-dish, which are arrayed in a cross fashion. Inoculate three third-instar diamondback moth larvae that have been subjected to 4-hour starvation treatments onto the leaf disks and seal the dish. Prepare 10 replicas for each treatment group. After 48 hours, pick five replicas with 0% death rate to measure the leaf areas that have been consumed by the larvae with a grid paper and calculate the average leaf consumption areas. Antifeeding Rate (%)=[(Leaf Consumption Area in the Control Group−Leaf Consumption Area in the Treatment Group)÷(Leaf Consumption Area in the Control Group+Leaf Consumption Area in the Treatment Group)]×100.
# diamondback moth larvae [4] = experiment: Non-selective antifeeding, leaf disk dipping; settings: third-instar larvae
# Method: as §1, §3
# Put a good-sized piece of filter paper in a Petri-dish, and then put two processed leaf disks in the same Petri-dish and another two control leaf disks in a different dish. Inoculate three third-instar diamondback moth larvae that have been subjected to 4-hour starvation treatments onto the leaf disks and seal the dish. Prepare 10 replicas for each treatment group. After 48 hours, pick five replicas with 0% death rate to measure the leaf areas that have been consumed by the larvae with a grid paper and calculate the average leaf consumption areas. Non-Selective Antifeeding Rate (%)=[(Leaf Consumption Area in the Control Group—Leaf Consumption Area in the Treatment Group)÷Leaf Consumption Area in the Control Group]×100.
smiles,measurement,setting,value
OCCNc1ncnc2c1ncn2[C@@H]1O[C@H](CO)[C@@H](O)[C@H]1O [N6-(2-hydroxyethyl)-adenosine],Insecticidal activity on aphids,aphids,able to kill aphids
same,Average Weight (10 Tested Larvae) (mg) Δ4d,diamondback moth larvae [1]; 100 mg/L,4.13 mg
same,Average Weight (10 Tested Larvae) (mg) Δ4d,diamondback moth larvae [1]; 150 mg/L,2.40 mg
same,Average Weight (10 Tested Larvae) (mg) Δ4d,diamondback moth larvae [1]; 200 mg/L,1.33 mg
same,Average Weight (10 Tested Larvae) (mg) Δ4d,diamondback moth larvae [1]; 250 mg/L,0.65 mg
same,Average Weight (10 Tested Larvae) (mg) Δ4d,diamondback moth larvae [1]; 300 mg/L,0.48 mg
same,inhibition at 100 µg/mL,"diamondback moth larvae [1]; Plutella xylostella, 72 h, 100 mg/L, 3 days after treatment, third-instar larvae, read-out: Weight Gain Inhibition Rate (%)",18.3%
same,inhibition at 150 µg/mL,"diamondback moth larvae [1]; Plutella xylostella, 72 h, 150 mg/L, 3 days after treatment, third-instar larvae, read-out: Weight Gain Inhibition Rate (%)",52.5%
same,inhibition at 200 µg/mL,"diamondback moth larvae [1]; Plutella xylostella, 72 h, 200 mg/L, 3 days after treatment, third-instar larvae, read-out: Weight Gain Inhibition Rate (%)",73.8%
same,inhibition at 250 µg/mL,"diamondback moth larvae [1]; Plutella xylostella, 72 h, 250 mg/L, 3 days after treatment, third-instar larvae, read-out: Weight Gain Inhibition Rate (%)",87.1%
same,inhibition at 300 µg/mL,"diamondback moth larvae [1]; Plutella xylostella, 72 h, 300 mg/L, 3 days after treatment, third-instar larvae, read-out: Weight Gain Inhibition Rate (%)",90.6%
same,"Average Corrected Death Rate (%), stomach poisoning",diamondback moth larvae [2]; 800 mg/L,84.21%
same,"Average Corrected Death Rate (%), stomach poisoning",diamondback moth larvae [2]; 1000 mg/L,86.84%
same,Post-treatment death rates of the larvae,"diamondback moth larvae [2]; 25-hour post-treatment, 1000 to 200 mg/L",below 30%
same,Lethal effect on diamondback moth,diamondback moth larvae [2]; in vivo,strong lethal effect
same,Selective antifeeding rate,"diamondback moth larvae [3]; 200 mg/L, 48 hour",71.30%
same,Selective antifeeding rate,"diamondback moth larvae [3]; 250 mg/L, 48 hours",83.47%
same,Selective antifeeding rate,"diamondback moth larvae [3]; 300 mg/L, 48 hours",83.82%
same,Feeding capacity of the tested larvae (FIGS. 2 and 3),"diamondback moth larvae [3]; 300, 250, 200, 150 and 100 mg/L",clear declines in their feeding capacity
same,Non-selective antifeeding rate,"diamondback moth larvae [4]; 200 mg/L, 48 hour",65.75%
same,Non-selective antifeeding rate,"diamondback moth larvae [4]; 250 mg/L, 48 hours",75.73%
same,Non-selective antifeeding rate,"diamondback moth larvae [4]; 300 mg/L, 48 hours",77.64%
